Series [1] in a line: Solubility of DHA in aprotic and protic solvents. The text has this:
In order to choose the suitable solvent for preparing non-yellowing DHA composition, the different possible protic, aprotic solvents were selected and evaluated individually and also as their suitable mixture.
In case of aprotic solvents, it was selected based on its compatibility with other ingredients present in the end-user products. Further, the regulatory requirement was also considered as an important element in choosing preferred aprotic solvent for preparing non-yellowing/reduced-yellowing DHA composition of the present application. The high content of DHA can be introduced in the solvent by dispersing or dissolving the DHA in their corresponding aprotic solvents. […] The various solvents selected are disclosed in Table 8.
Further, the applicants have evaluated various protic solvents to understand their ability to render non-yellowing/reduced-yellowing DHA composition for employing in various end-user products that are aqueous in nature.

Series [2] is described as follows: Yellowing of DHA in aprotic and protic solvents. The format is physicochemical. The source says:
The various solvents selected are disclosed in Table 8.
The yellowing of DHA increased drastically when aprotic aromatic compounds were present along with DHA due to radical coupling between DHA and such solvents comprising aromatic compounds.
The decomposition of DHA was low at room temperature (RT) and at high temperature, wherein, the small amount of DHA decompose to form a radical and couple by themselves to form traces high of epsilon chromophoric products and if aromatic aprotic solvents are present along with DHA in solution they couple to form a longer chromophore with high intensity yellow color in water.

Series [3] relates to S. aureus. Kind of series: Preservative Efficacy Test in Lamellar Prolipid formulation: S. aureus. The format is cell-based. The source says: (§1) The detailed composition of these end-user products comprising DHA solubilized Propyelene Carbonate is described below in detail.
Series [4] concerns Bacterial Mixture. Description: Preservative Efficacy Test in Lamellar Prolipid formulation: Bacterial Mixture. The format is cell-based.
From the text: as §1

Series [5] concerns Mold Mixture. Description: Preservative Efficacy Test in Lamellar Prolipid formulation: Mold Mixture. The format is cell-based.
From the text: as §1

Series [6] relates to E. coli (ATCC 8739). Kind of series: Synergism study (MIC, synergy index) of DHA with aprotic solvents: E. coli. It counts as cell-based. As for the experimental part: (§2) Tryptic Soy Broth (TSB) media was used for bacterial evaluations and Yeast Malt Broth (YMB) for fungal evaluations. The compounds DHA or the aprotic solvents were added to the media and serially diluted. After serially diluting the media, 100 μl of a suspension of the testing bacteria or fungi were added to a final concentration of approximately 106 −5 CFU/ml. The inoculated media was then incubated at 32° C. for 2-5 days for bacteria or at 28° C. for 3-7 days for fungi.
(§3) The lowest concentration of each compound or mixtures to inhibit visible growth was taken as the minimum inhibitory concentration (MIC). The MIC's were taken as end points of activity. End points for the mixtures of compound A (DHA) and compound B (aprotic solvent) were then compare with the end points for the pure active ingredient alone.
(§4) Synergism was determined by a commonly used and accepted method described by Kull A. C.; Eisman, P. C.; Sylwestrowicz, H. D. and Mayer, R. L. 1961. […]

Series [7] has as its system S. aureus (ATCC 6538). Description: Synergism study (MIC, synergy index) of DHA with aprotic solvents: S. aureus. The format is cell-based. As for the experimental part: as §2, §3, §4
Series [8] has as its system A. brasilensts (ATCC 16404). Kind of series: Synergism study (MIC, synergy index) of DHA with aprotic solvents: A. brasilensts. The format is cell-based. As for the experimental part: as §2, §3, §4
Where [9] appears, read: DHA in the named protic polar solvent (Table 9).
Setting [10] is: DHA in the named protic polar solvent, RT.
Setting [11] is: DHA in the named aprotic solvent, RT, 1 month.

Results on ten compounds are retold here after patent US11224222B2, “Synergistic compositions of dehydroacetic acid and methods for reducing yellowing in various end-user compositions” (ISP Investments LLC, priority 2015, dated 2022).

Read-outs that look alike come from different tables or passages of the source.

Regarding Phenethyl ethanol, in series [1] (setting [9]), the “% of DHA soluble” value was found to be 8%. The “Yellowing at RT For 1 month” value in series [2] was “Yellow on day one”.

For Phenethylpropanol, the “% of DHA soluble” value in series [1] turned out to be 8%. Besides, the Comments result in series [1] (pH 8) is given as “Crystallize”. Moreover, the “Yellowing at RT For 1 month” value in series [2] (setting [10]) is reported as “yellow on day one”.

For `CCCCCCC(O)CO` (stereo not shown) [0.5% octanediol], in series [3] (day 2), the “Preservative Efficacy Test count, S. aureus, Days 2” value was 4.00E+01. The “Preservative Efficacy Test count, S. aureus, Days 7” value in series [3] (day 7) was below 10. In series [3] (day 14), the “Preservative Efficacy Test count, S. aureus, Days 14” value is below 10. In addition, the “Preservative Efficacy Test count, S. aureus, Days 21” value in series [3] (day 21) is given as below 10. Further, the “Preservative Efficacy Test count, S. aureus, Days 28” value in series [3] (day 28) was below 10. Also, the “Preservative Efficacy Test count, Bacterial Mixture, Days 2” value in series [4] (day 2) is on record as below 10. The “Preservative Efficacy Test count, Bacterial Mixture, Days 7” value in series [4] (day 7) is below 10. Also, the “Preservative Efficacy Test count, Bacterial Mixture, Days 14” value in series [4] (day 14) was below 10. For the same compound, the “Preservative Efficacy Test count, Bacterial Mixture, Days 21” value in series [4] (day 21) is below 10. Also, the “Preservative Efficacy Test count, Bacterial Mixture, Days 28” value in series [4] (day 28) was below 10. In addition, the “Preservative Efficacy Test count, Mold Mixture, Days 2” value in series [5] (day 2) is 2.10E+04. Moreover, the “Preservative Efficacy Test count, Mold Mixture, Days 7” value in series [5] (day 7) was 1.80E+04. For the same compound, the “Preservative Efficacy Test count, Mold Mixture, Days 14” value in series [5] (day 14) is 4.40E+03. Besides, in series [5] (day 21), the “Preservative Efficacy Test count, Mold Mixture, Days 21” value is recorded as 4.30E+03. The “Preservative Efficacy Test count, Mold Mixture, Days 28” value in series [5] (day 28) stood at 5.00E+04.

On to Water, for which the “Yellowing at RT For 1 month” value was “No yellowing” in series [2] (DHA in Water, pH 4) and “Slight yellowing” in series [2] (DHA in Water, pH 8).

Take `CC1COC(=O)O1` (stereo not shown) [Propylene carbonate, propylene carbonate]: the MIC – broadly, the lowest concentration that inhibits growth of the organism – came out at 6250 µg/mL in series [6] (Escherichia coli, ATCC8739, read-out: Solvent (B): MIC of solvent acting alone (QB)); 12500 µg/mL in series [7] (Staphylococcus aureus, ATCC6538, read-out: Solvent (B): MIC of solvent acting alone (QB)); 6250 µg/mL in series [8] (read-out: Solvent (B): MIC of solvent acting alone (QB)). Besides, the “Yellowing at RT For 1 month” value in series [2] (setting [11]) is given as “No yellowing”.

On to `CCCCC(O)CO` (stereo not shown) [1,2hexanediol], for which, in series [2] (setting [10]), the “Yellowing at RT For 1 month” value is recorded as “Yellow in 9 days”.

For the compound `COC(=O)C(C)O` (stereo not shown) [Methyl lactate], in series [2] (setting [11]), the “Yellowing at RT For 1 month” value was “No yellow”.

With `CCCCCCC(O)CO` (stereo not shown) [Capryl glycol], the “% of DHA soluble” value in series [1] (setting [9]) was 2.5%. Further, the “Yellowing at RT For 1 month” value in series [2] (setting [10]) was “Yellow in 30 days”.

Turning to `CO[C@H]1CO[C@H]2[C@@H]1OC[C@H]2OC` [Dimethyl isosorbide], the “Solvent (B): MIC of solvent acting alone (QB)” value in series [6] is 12500 ppm; in series [7] it was 12500 ppm; in series [8] it was 3125 ppm. Besides, the “% of DHA soluble” value in series [1] (DHA in the named aprotic solvent (Table 8)) is recorded as 8-10%.

For `C1CCCCC1` [Cyclohexane], the “% of DHA soluble” value in series [1] was 3-5%. The “Yellowing At 50° C.” value in series [2] (DHA in the named aprotic solvent, 50° C., figures in brackets = Gardner color) is on record as “Slight yellowing (2-3)”. In series [2] (setting [11]), the “Yellowing at RT For 1 month” value is on record as “No yellowing”.
